Source: patent publication US20240325458A1, “COMPOSITION FOR PRODUCING BILE ACIDS” (priority 2020, published 2024)

Legend:
prostate cancer cell = conditions: by reducing E-cadherin expression; reported [63, 64]; cited from earlier work
estrogen receptor R (ER) = estrogen receptor R (ER) (Homo sapiens, UniProt Q92731); conditions: reported [63, 64]; cited from earlier work
androgen receptor (AR) = molecular target: T1, androgen receptor (AR) (Homo sapiens, UniProt P10275); conditions: reported [28, 63, 64]; cited from earlier work
T1 sequence (P10275 1-920): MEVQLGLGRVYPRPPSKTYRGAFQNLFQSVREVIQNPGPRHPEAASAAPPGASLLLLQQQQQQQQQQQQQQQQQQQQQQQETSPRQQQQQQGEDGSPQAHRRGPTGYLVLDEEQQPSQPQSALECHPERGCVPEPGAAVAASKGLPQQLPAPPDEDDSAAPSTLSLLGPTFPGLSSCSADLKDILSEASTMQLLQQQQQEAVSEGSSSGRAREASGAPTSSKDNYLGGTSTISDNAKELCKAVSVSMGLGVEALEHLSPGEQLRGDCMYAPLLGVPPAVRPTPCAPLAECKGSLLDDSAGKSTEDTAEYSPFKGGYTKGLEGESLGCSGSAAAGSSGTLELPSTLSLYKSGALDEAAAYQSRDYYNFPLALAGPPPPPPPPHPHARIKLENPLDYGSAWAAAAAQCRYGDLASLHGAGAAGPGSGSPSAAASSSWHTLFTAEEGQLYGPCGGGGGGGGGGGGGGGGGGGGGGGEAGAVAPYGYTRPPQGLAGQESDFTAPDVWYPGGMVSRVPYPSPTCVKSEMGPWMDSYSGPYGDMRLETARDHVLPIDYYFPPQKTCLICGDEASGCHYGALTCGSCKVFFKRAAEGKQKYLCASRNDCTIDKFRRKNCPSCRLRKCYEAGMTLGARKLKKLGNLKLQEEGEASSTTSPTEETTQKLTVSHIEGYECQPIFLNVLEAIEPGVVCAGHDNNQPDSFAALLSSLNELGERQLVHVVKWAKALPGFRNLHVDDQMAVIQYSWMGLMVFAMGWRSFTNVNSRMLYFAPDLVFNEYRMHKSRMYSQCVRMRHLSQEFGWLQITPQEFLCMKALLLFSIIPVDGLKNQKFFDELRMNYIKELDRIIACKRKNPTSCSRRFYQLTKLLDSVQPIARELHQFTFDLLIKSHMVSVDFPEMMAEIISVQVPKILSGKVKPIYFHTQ

T helper 17 (TH17) cells = conditions: reported [30]; cited from earlier work
Clostridioides difficile = conditions: known [36, 40, 41]; cited from earlier work
gram-negative pathogens = experiment: Bacterial growth inhibition assay, gram-negative pathogen panel; assay type: cell-based; conditions: all bacteria in the gram-negative pathogen panel
[1] = tested on: gram-negative symbiotic bacteria; experiment: Growth inhibition of intestinal symbiotic bacteria; assay type: cell-based; conditions: most gram-negative symbiotic bacteria such as Bacteroides; WCA and BHI media
[2] = tested on: gram-positive symbiotic bacteria; experiment: Growth inhibition of intestinal symbiotic bacteria; assay type: cell-based
VRE = experiment: Electron microscopy (SEM/TEM) after isoalloLCA treatment; assay type: cell-based, Enterococcus faecium; conditions: 8 μM isoalloLCA, 5 hours, WCA medium
Method: (§1) FIG. 4C is typical scanning electron microscope images (SEM, left panels) and transmission electron microscope images (TEM, right panels) when C. difficile 630 and VRE were cultured for 5 hours in a WCA medium containing or not containing 8 μM isoalloLCA. The scale bars indicate 1.0 μm (SEM), 200 nm (C. difficile 630 TEM), and 500 nm (VRE TEM). The arrows indicate the shape change after isoalloLCA treatment.
(§2) Bacterial cultures incubated with or without isoalloLCA were collected after 5 hr incubation for electron microscopy samples. For scanning electron microscopy, 10-30 μL of culture was spotted on the Nano percolator membrane (JEOL) and fixed in freshly prepared 2.5% glutaraldehyde solution. After overnight fixation at 4° C., samples were washed in 0.1 M phosphate buffer (pH 7.4, Muto Pure Chemicals), fixed with 1.0% osmium tetroxide (TAAB Laboratories) for 2 hr at 4° C., and treated with a series of increasing concentrations of ethanol. Samples were dried up with critical point dryer (CPD300, Leica Biosystems) and coated with about 2 nm thickness of osmium using a conductive osmium coater (Neoc-ST, Meiwafosis). SEM images were acquired using the SU6600 (Hitachi High Tech) at electron voltage of 5 keV.
(§3) For transmission electron microscopy, microbial pellets were prepared by centrifugation (13,000 rpm, 2 min) from 25 mL bacterial cultures. […]

C. difficile VPI10463 = experiment: Bacterial growth inhibition assay (OD 600); assay type: cell-based, Clostridioides difficile; conditions: toxin-producing strain
Description: (§4) Clostridioides difficile strain 630 (ATCC BAA-1382), Clostridioides difficile VPI 10463 (ATCC 43255), vancomycin-resistant Enterococcus faecium (ATCC 700221), Streptococcus dysgalactiae subsp. equisimilis (ATCC 12394), carbapenemase-resistant Klebsiella pneumoniae (ATCC BAA-1705), and Salmonella enterica subsp. enterica (ATCC 14028) were purchased from the American Type Culture Collection (ATCC).
(§5) From fresh colonies grown on BHK blood agar plates (Kyokuto), a primary suspension adjusted to OD 600 of 0.63 was prepared in WCA medium. Subsequently, the secondary suspension was prepared by diluting 100 μL of primary suspension into a total of 2.4 mL of medium. 10 μL of secondary suspension was inoculated to a total of 200 μL of medium containing varying concentrations ([…], 6.25, 12.5, 25, and 50 μM) of bile acids; DCA, LCA, 3-oxoLCA, 3-oxoalloLCA, isoLCA, alloLCA, and isoalloLCA. The growth of bacteria was monitored every 0.5-1 hr by OD 600 measurement using a microplate reader (Sunrise Thermo, Tecan) set at 37° C. with a 60 see shaking before each time point. For determining the minimal inhibitory concentration, 10 μL of secondary suspension was inoculated into a total of 200 μL of medium containing 0.25 to 50 μM of isoalloLCA.

C. difficile 630 [3] = experiment: Bacterial growth inhibition assay (OD 600); assay type: cell-based, Clostridioides difficile
Description: as §4, §5
Therefore, next, it was investigated whether 3-oxoLCA and isoalloLCA had the ability to inhibit the growth of C. difficile. […]

Treg cells = conditions: reported [30]; cited from earlier work
[4] = tested on: C. sporogenes, C. indolis, and C. HGF2 (innocuum); experiment: Scanning electron microscopy of symbiotic bacteria; assay type: cell-based; conditions: 2.5 μM isoalloLCA, 5 hours, WCA medium
Method: FIG. 16B is a set of photographs showing typical results obtained by observing C. difficile 630, C. sporogenes, C. indoli, and C. HGF2 (innocuum) with a scanning electron microscope after culturing for 5 hours in a WCA medium containing control or 2.5 μM isoalloLCA. […] Scale bars indicate 5.0 μm and 1.0 μm. The arrowheads indicate a shape change after isoalloLCA treatment.
as §2

[5] = tested on: vancomycin-resistant Enterococcus faecium (VRE); experiment: Bacterial growth inhibition assay (OD 600); assay type: cell-based
Description: as §4, §5

human fecal microbiota = experiment: Culturing human feces with bile acids, 16S rRNA gene sequencing; assay type: cell-based; conditions: 50 μM, 48 hr
Method: Human fecal culture was conducted in 96-deep well plates (Treff Lab) using stool samples obtained from young and healthy donors. […] Fecal cultures with a final concentration of 50 μM bile acids (LCA, 3-oxoLCA, and isoalloLCA) were incubated anaerobically for 48 hr at 37° C. DNA was extracted from the fecal sample culture for 16S metagenomic sequencing as described above.
In addition, in order to assess the effects of isoalloLCA on the complex normal intestinal microbiota, human fecal microbiota from young, healthy sample donors were cultured using isoalloLCA, 3-oxoLCA, LCA, or control systems and analyzed for bacterial microbiota changes by 16S rRNA gene sequencing.

Lactobacillus strain = experiment: Growth inhibition of intestinal symbiotic bacteria; assay type: cell-based
C. difficile 630 [6] = experiment: Electron microscopy (SEM/TEM) after isoalloLCA treatment; assay type: cell-based, Clostridioides difficile; conditions: 8 μM isoalloLCA, 5 hours, WCA medium
Method: as §1, §2, §3

[7] = compared to other bile acid compounds

Sequence of estrogen receptor R (ER) (Q92731 whole entry): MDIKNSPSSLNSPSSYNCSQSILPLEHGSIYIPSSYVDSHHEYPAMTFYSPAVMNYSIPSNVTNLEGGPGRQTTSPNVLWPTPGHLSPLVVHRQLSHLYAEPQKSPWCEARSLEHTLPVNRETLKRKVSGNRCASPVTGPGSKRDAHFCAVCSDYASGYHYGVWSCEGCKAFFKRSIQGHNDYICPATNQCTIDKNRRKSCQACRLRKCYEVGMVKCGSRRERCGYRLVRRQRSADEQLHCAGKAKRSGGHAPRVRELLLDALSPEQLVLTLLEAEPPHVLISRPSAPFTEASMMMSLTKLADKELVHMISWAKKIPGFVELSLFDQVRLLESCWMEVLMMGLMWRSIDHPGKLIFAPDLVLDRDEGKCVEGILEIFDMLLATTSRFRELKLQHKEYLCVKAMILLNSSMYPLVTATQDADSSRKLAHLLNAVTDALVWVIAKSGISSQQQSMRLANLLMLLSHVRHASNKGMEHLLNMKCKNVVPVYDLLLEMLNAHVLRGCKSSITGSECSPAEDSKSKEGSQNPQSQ

## C[C@]12CC[C@H](O)C[C@@H]1CC[C@@H]1[C@@H]2CC[C@]2(C)[C@@H](O)CC[C@@H]12 [3β-androstanediol]
Prostate cancer cell
  prostate cancer cell migration: inhibits prostate cancer cell migration
Estrogen receptor R (ER)
  estrogen receptor activation: activates estrogen receptor R (ER)
Androgen receptor (AR)
  binding to AR: without binding to AR

## C[C@H](CCC(=O)O)[C@H]1CC[C@H]2[C@@H]3CC[C@@H]4CC(=O)CC[C@]4(C)[C@H]3CC[C@]12C [St 3-oxoLCA, 3-Oxo-lithocholic acid, reference compound]
T helper 17 (TH17) cells
  TH17 cell suppression: suppress T helper 17 (TH17) cells

## C[C@H](CCC(=O)O)[C@H]1CC[C@H]2[C@@H]3CC[C@@H]4C[C@@H](O)CC[C@]4(C)[C@H]3CC[C@]12C [isoLCA, Iso-lithocholic acid]
T helper 17 (TH17) cells
  TH17 cell suppression: suppress T helper 17 (TH17) cells
Clostridioides difficile
  inhibition of growth of Clostridioides difficile: inhibiting the growth

## C[C@H](CCC(=O)O)[C@H]1CC[C@H]2[C@@H]3CC[C@H]4C[C@@H](O)CC[C@]4(C)[C@H]3CC[C@]12C [isoalloLCA, Iso-allo-lithocholic acid]
gram-negative pathogens
  resistant at the highest concentration tested: > 50 µM
[1]
  effect on growth: did not significantly affect the growth
[2]
  MIC90 value of the symbiotic strains relative to pathogens: generally higher than that of the pathogens
[2]; BHI medium rich in peptone and amino acids
  resistance of symbiotic strain in BHI medium compared to WCA medium: increased resistance
[2]; WCA and BHI media
  effect on growth: reliably inhibited the growth
VRE
  bactericidal effect, morphological and hyperfine structure changes: bactericidal and results in morphological changes and hyperfine structure changes
C. difficile VPI10463
  growth inhibition: Strong growth inhibition
C. difficile 630 [3]; WCA medium
  minimum inhibitory concentration (MIC90) required to prevent growth of 90% or more: 2.0 µM
C. difficile 630 [3]; in vitro, optical density over time
  growth inhibition: strongly inhibited the growth
Treg cells
  Treg cell induction: induces Treg cells
[4]
  cell wall structure by scanning electron microscopy: cell wall structure of the symbiotic bacteria was maintained
[5]
  growth inhibition: Strong growth inhibition
Human fecal microbiota; [7]
  change in gram-negative bacteria (Bacteroides, Alistipes): corresponding increase
  change in gram-positive bacteria (Clostridium, Faecalibacterium, Bifidobacterium, Streptococcus): more pronounced decrease
Human fecal microbiota; feces of young healthy donors
  α-diversity (Shannon index) of fecal culture: not significantly affected
Human fecal microbiota; phylum level
  bacterial community structure: clear widespread change in the bacterial community structure
Lactobacillus strain
  resistance to the inhibitory effect: highly resistant
C. difficile 630 [6]
  bactericidal effect, morphological and hyperfine structure changes: bactericidal and results in morphological changes and hyperfine structure changes
